From US20220363665A1, “QUINOLINE COMPOUNDS FOR THE TREATMENT OF AUTOIMMUNE DISEASE” (Hoffmann-La Roche Inc., priority 2019, published 2022) come the findings set out here.

Molecules are shown by their SMILES.

This experiment deals with T1, human TLR9 (Homo sapiens, UniProt Q9NR96).
T1 construct: host or cells: HEK293 (HEK-Blue hTLR9)
T1 sequence (Q9NR96 26-1032): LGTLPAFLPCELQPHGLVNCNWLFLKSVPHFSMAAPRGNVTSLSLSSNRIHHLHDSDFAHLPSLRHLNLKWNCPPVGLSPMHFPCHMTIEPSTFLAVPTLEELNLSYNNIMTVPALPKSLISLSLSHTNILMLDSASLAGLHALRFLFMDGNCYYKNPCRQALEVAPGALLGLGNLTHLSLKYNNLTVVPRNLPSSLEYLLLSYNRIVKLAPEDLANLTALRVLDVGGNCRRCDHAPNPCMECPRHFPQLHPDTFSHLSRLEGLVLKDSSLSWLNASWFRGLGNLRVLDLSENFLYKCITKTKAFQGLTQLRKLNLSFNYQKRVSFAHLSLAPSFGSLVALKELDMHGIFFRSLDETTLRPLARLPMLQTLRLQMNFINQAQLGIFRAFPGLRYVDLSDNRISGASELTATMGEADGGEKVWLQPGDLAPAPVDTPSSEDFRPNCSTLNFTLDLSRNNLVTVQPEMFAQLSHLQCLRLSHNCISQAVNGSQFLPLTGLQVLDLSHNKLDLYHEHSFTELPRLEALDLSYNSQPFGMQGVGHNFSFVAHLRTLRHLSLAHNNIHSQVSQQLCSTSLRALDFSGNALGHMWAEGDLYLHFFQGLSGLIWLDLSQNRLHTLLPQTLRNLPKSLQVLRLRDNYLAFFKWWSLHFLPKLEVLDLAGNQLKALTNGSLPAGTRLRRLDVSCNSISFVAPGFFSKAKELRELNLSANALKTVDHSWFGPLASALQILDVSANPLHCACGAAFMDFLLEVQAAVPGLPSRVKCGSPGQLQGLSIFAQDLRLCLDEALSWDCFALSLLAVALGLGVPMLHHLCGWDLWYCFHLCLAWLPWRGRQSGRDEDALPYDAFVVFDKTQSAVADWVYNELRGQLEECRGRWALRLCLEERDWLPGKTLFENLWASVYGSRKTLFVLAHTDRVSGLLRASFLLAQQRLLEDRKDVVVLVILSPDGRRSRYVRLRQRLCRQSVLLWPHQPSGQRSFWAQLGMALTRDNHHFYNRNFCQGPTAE
Put plainly: HEK293-Blue-hTLR-9 cells assay (SEAP reporter, ODN2006 stimulation). The experiment is classed as cell-based. The conditions noted are these: HEK293-Blue-hTLR9 cells, ODN2006, 20 hrs. As to the method:
The following tests were carried out in order to determine the activity of the compounds of formula (I) in HEK293-Blue-hTLR-7/8/9 cells assay.
HEK293-Blue-hTLR-9 Cells Assay:
A stable HEK293-Blue-hTLR-9 cell line was purchased from InvivoGen (Cat. #. hkb-htlr9, San Diego, Calif., USA). These cells were originally designed for studying the stimulation of human TLR9 by monitoring the activation of NF-κB. A SEAP (secreted embryonic alkaline phosphatase) reporter gene was placed under the control of the […] minimal promoter fused to five NF-κB and AP-1-binding sites. The SEAP was induced by activating NF-κB and AP-1 via stimulating HEK-Blue hTLR9 cells with TLR9 ligands. Therefore the reporter expression was declined by TLR9 antagonist under the stimulation of a ligand, such as ODN2006 (Cat. #: tlrl-2006-1, Invivogen, San Diego, Calif., USA), for incubation of 20 hrs. The cell culture supernatant SEAP reporter activity was determined using QUANTI-Blue™ kit (Cat. #: rep-qbl, Invivogen, San Diego, Calif., USA) at a wavelength of 640 nm, a detection medium that turns purple or blue in the presence of alkaline phosphatase.
HEK293-Blue-hTLR9 cells were incubated at a density of […] cells/mL in a volume of 170 μL, in a 96-well plate in Dulbecco's Modified Eagle's medium (DMEM) containing 4.5 g/L glucose, 50 U/mL penicillin, […], […], 2 mM L-glutamine, 10% (v/v) heat-inactivated fetal bovine serum with addition of 20 μL test compound in a serial dilution in the presence of final DMSO at 1% and 10 μL of 20 uM ODN2006 in above DMEM, perform incubation under 37° C. in a CO2 incubator for 20 hrs. Then 20 μL of the supernatant from each well was incubated with 180 μL Quanti-blue substrate solution at 37° C. for 2 hrs and the absorbance was read at 620˜655 nm using a spectrophotometer. The signalling pathway that TLR9 activation leads to downstream NF-κB activation has been widely accepted, and therefore similar reporter assay was modified for evaluating TLR9 antagonist.
In turn, `C[C@@H]1CN(c2ccc(C(F)(F)F)c3ncccc23)C[C@H](C(=O)NC2C3CCCC2CNC3)O1` (stereo partly drawn) [Example 45, (2R,6R)-N-(3-azabicyclo[3.3.1]nonan-9-yl)-6-methyl-4-[8-(trifluoromethyl)-5-quinolyl]morpholine-2-carboxamide] came in with an IC50 of 11.6 µM.
With `Cc1ccc(N2C[C@@H](C)O[C@@H](C(=O)NCC3CN(C)CCO3)C2)c2cccnc12` (stereo partly drawn) [Example 17, (2R,6R)-6-methyl-N-[(4-methylmorpholin-2-yl)methyl]-4-(8-methyl-5-quinolyl)morpholine-2-carboxamide], the IC50 was over 100 µM.
The compound `C[C@@H]1CN(c2ccc(C(F)(F)F)c3ncccc23)C[C@H](C(=O)N[C@@H]2CNC[C@@H]2F)O1` (single isomer, unassigned) [Example 2A] yielded an IC50 of 41 µM.
In turn, `C[C@@H]1CN(c2ccc(C(F)(F)F)c3ncccc23)C[C@H](C(=O)NC2CN(C)CC23CC3)O1` (stereo partly drawn) [Example 9, (2R,6R)-6-methyl-N-(5-methyl-5-azaspiro[2.4]heptan-7-yl)-4-[8-(trifluoromethyl)-5-quinolyl]morpholine-2-carboxamide] came in with an IC50 of 10.9 µM.
Under `C[C@@H]1CN(c2ccc(C(F)(F)F)c3ncccc23)C[C@H](C(=O)NCC2COCCN2C)O1` (stereo partly drawn) [Example 11, (2R,6R)-6-methyl-N-[(4-methylmorpholin-3-yl)methyl]-4-[8-(trifluoromethyl)-5-quinolyl]morpholine-2-carboxamide] stands over 100 µM; under `C[C@@H]1CN(c2ccc(C(F)(F)F)c3ncccc23)C[C@H](C(=O)NC2CCN(C)CC2)O1` [Example 5, (2R,6R)-6-methyl-N-(1-methyl-4-piperidyl)-4-[8-(trifluoromethyl)-5-quinolyl]morpholine-2-carboxamide], 15.5 µM.
Under `C[C@@H]1CN(c2ccc(C(F)(F)F)c3ncccc23)C[C@H](C(=O)NC2CNC[C@@H]2F)O1` (stereo partly drawn) [Example 2, cis-(2R,6R)-N-(4-fluoropyrrolidin-3-yl)-6-methyl-4-[8-(trifluoromethyl)-5-quinolyl]morpholine-2-carboxamide] stands 51.8 µM.
Take `Cc1ccc(N2C[C@@H](C)O[C@@H](C(=O)N[C@@H]3CNC[C@@H]3F)C2)c2cccnc12` [Example 21, cis-(2R,6R)-N-14-fluoropyrrolidin-3-yl1-6-methyl-4-(8-methyl-5-quinolyl)morpholine-2carboxamide]: the IC50 came to 38 µM.
`C[C@@H]1CN(c2ccc(C(F)(F)F)c3ncccc23)C[C@H](C(=O)NC2CC3CCCC(C2)N3)O1` (single isomer, unassigned) [Example 34B] had an IC50 of 10 µM.
`C[C@@H]1CN(c2ccc(Br)c3ncccc23)C[C@H](C(=O)NC2CCN(C)CC2)O1` [Example 42, (2R,6R)-4-(8-bromo-5-quinolyl)-6-methyl-N-(1-methyl-4-piperidyl)morpholine-2-carboxamide] registered an IC50 of 10.6 µM.
In turn, `C[C@@H]1CN(c2ccc(Cl)c3ncccc23)C[C@H](C(=O)N[C@H]2CNC[C@H]2F)O1` [Example 22, (2R,6R)-4-(8-chloro-5-quinolyl)-N-[(3S,4R)-4-fluoropyrrolidin-3-yl]-6-methyl-morpholine-2-carboxamide] gave an IC50 of 37 µM.
For `C[C@@H]1CN(c2ccc(C(F)(F)F)c3ncccc23)C[C@H](C(=O)NCC2CCCCN2C)O1` (stereo partly drawn) [Example 4, (2R,6R)-6-methyl-N-[(1-methyl-2-piperidyl)methyl]-4-[8-(trifluoromethyl)-5-quinolyl]morpholine-2-carboxamide], inhibition was half-maximal at 11.4 µM (IC50).
Under `C[C@@H]1CN(c2ccc(C(F)(F)F)c3ncccc23)C[C@H](C(=O)NCC2CNCCO2)O1` (stereo partly drawn) [Example 48, (2R,6R)-6-methyl-N-(morpholin-2-ylmethyl)-4-[8-(trifluoromethyl)-5-quinolyl]morpholine-2-carboxamide] stands 11.7 µM.
The compound `C[C@@H]1CN(c2ccc(C(F)(F)F)c3ncccc23)C[C@H](C(=O)NC2C[C@H]3C[C@@H]2CN3)O1` (some centres unmarked) [Example 44] yielded an IC50 of 15.7 µM.
The figure for `C[C@@H]1CN(c2ccc(C(F)(F)F)c3ncccc23)C[C@H](C(=O)NC[C@@H]2C[C@@H](F)CN2)O1` [Example 27, (2R,6R)-N-[[(2S,4R)-4-fluoropyrrolidin-2-yl]methyl]-6-methyl-4-[8-(trifluoromethyl)-5-quinolyl]morpholine-2-carboxamide] is 28.1 µM.
The figure for `C[C@@H]1CN(c2ccc(C(F)(F)F)c3ncccc23)C[C@H](C(=O)NC2C3CNCC2COC3)O1` (single isomer, unassigned) [Example 46B] is 15.3 µM; for `C[C@@H]1CN(c2ccc(C(F)(F)F)c3ncccc23)C[C@H](C(=O)N2CCC3(CCNCC3)CC2)O1` [Example 32, 3,9-diazaspiro[5.5]undecan-3-yl-[(2R,6R)-6-methyl-4-[8-(trifluoromethyl)-5-quinolyl]morpholin-2-yl]methanone] it is 3.7 µM; for `C[C@@H]1CN(c2ccc(C(F)(F)F)c3ncccc23)C[C@H](C(=O)NC2CNCCOC2)O1` (stereo partly drawn) [Example 14, (2R,6R)-6-methyl-N-(1,4-oxazepan-6-yl)-4-[8-(trifluoromethyl)-5-quinolyl]morpholine-2-carboxamide] it is 29.4 µM.
Under `C[C@@H]1CN(c2ccc(C(F)(F)F)c3ncccc23)C[C@H](C(=O)NCC(C)(C)N)O1` [Example 6, (2R,6R)-N-(2-amino-2-methyl-propyl)-6-methyl-4-[8-(trifluoromethyl)-5-quinolyl]morpholine-2-carboxamide] stands 29.8 µM; under `C[C@@H]1CN(c2ccc(C(F)(F)F)c3ncccc23)C[C@H](C(=O)NC2CC3COCC(C2)N3)O1` (stereo partly drawn) [Example 33, (2R,6R)-6-methyl-N-(3-oxa-9-azabicyclo[3.3.1]nonan-7-yl)-4-[8-(trifluoromethyl)-5-quinolyl]morpholine-2-carboxamide], 23.6 µM.
`C[C@@H]1CN(c2ccc(C(F)(F)F)c3ncccc23)C[C@H](C(=O)NC[C@@H]2CC(F)(F)CN2)O1` [Example 30]: the IC50 was over 100 µM.
The figure for `C[C@@H]1CN(c2ccc(I)c3ncccc23)C[C@H](C(=O)NC2CCN(C)CC2)O1` [Example 38, (2R,6R)-4-(8-iodo-5-quinolyl)-6-methyl-N-(1-methyl-4-piperidyl)morpholine-2-carboxamide] is 6 µM.
Compound `C[C@@H]1CN(c2ccc(C(F)(F)F)c3ncccc23)C[C@H](C(=O)NC2CC3CNCC32)O1` (single isomer, unassigned) [Example 49C] registered an IC50 of 7.7 µM.
The figure for `C#Cc1ccc(N2C[C@@H](C)O[C@@H](C(=O)NC3CCN(C)CC3)C2)c2cccnc12` [Example 43, (2R,6R)-4-(8-ethynyl-5-quinolyl)-6-methyl-N-(1-methyl-4-piperidyl)morpholine-2-carboxamide] is 12.3 µM.
`C[C@@H]1CN(c2ccc(C(F)(F)F)c3ncccc23)C[C@H](C(=O)NC2C3CNCC2COC3)O1` (single isomer, unassigned) [Example 46A] had an IC50 of 23 µM.
The figure for `C[C@@H]1CN(c2ccc(I)c3ncccc23)C[C@H](C(=O)NC2CNCC2F)O1` (stereo partly drawn) [Example 40, cis-(2R,6R)-N-[4-fluoropyrrolidin-3-yl]-4-(8-iodo-5-quinolyl)-6-methyl-morpholine-2-carboxamide] is 22.4 µM.

As a reminder, the IC50 is the midpoint of a concentration-inhibition curve.
